Measured values as given in patent US10508109B2 (priority 2015, dated 2019).

Legend:
A549 = test: Cell-based assay, anti-proliferative activity (Cell Counting Kit-8, 72 hours); conditions: Homo sapiens; A549 cells, Cell Counting Kit-8, 72 hours; read-out: IC50 (μM) A549
Summary of the method: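 Growth read-out after inhibitor treatment of plated cells; potency expressed as IC50.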

CCD-18Co = test: as above; conditions: Homo sapiens; CCD-18Co cells, Cell Counting Kit-8, 72 hours; read-out: IC50 (μM) CCD-18Co
Summary of the method: (§1)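 Seed cells in 96-well plates; add serially diluted inhibitor (1.5625 to 100 micro-M plus vehicle); incubate 72 hours; quantify viable growth by CCK-8 and calculate IC50.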

HCT-116 = test: as above; conditions: Homo sapiens; HCT-116 cells, Cell Counting Kit-8, 72 hours; read-out: IC50 (μM) HCT-116
Summary of the method: as §1

HFL1 = test: as above; conditions: Homo sapiens; HFL1 cells, Cell Counting Kit-8, 72 hours; read-out: IC50 (μM) HFL1
Summary of the method: as §1

PC14 = test: as above; conditions: Homo sapiens, PC-14; PC14 cells, Cell Counting Kit-8, 72 hours; read-out: IC50 (μM) PC14
Summary of the method: as §1

SUV39H2 = SUV39H2 (Homo sapiens (Human), UniProt Q9H5I1); conditions: read-out: IC50 (μM) Suv 39H2 assay; enzyme assay
SUV39H2, sequence (Q9H5I1 whole entry): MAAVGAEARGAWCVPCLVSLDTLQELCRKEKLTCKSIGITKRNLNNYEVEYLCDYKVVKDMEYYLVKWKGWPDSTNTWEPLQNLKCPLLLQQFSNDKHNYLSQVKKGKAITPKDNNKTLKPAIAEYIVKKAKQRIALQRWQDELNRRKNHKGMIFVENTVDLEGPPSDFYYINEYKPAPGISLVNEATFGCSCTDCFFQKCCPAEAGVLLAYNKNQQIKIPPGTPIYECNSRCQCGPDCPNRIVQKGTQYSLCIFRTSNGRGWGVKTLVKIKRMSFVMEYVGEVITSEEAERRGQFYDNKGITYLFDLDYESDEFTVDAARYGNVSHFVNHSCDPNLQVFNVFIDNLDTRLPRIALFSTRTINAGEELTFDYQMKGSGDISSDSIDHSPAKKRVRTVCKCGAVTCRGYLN

Row | SMILES | IC50 (A549) [µM] | IC50 (CCD-18Co) [µM] | IC50 (HCT-116) [µM] | IC50 (HFL1) [µM] | IC50 (PC14) [µM] | IC50 (SUV39H2) [µM]
1 | COCCCN1CCN(c2ccn3cc(-c4cc(Cl)c(OC)cc4OC)nc3c2)CC1 [Example 96, 2-(5-chloro-2,4-dimethoxyphenyl)-7-(4-(3-methoxypropyl)piperazin-1-yl)imidazo[1,2-a]pyridine] | 6.9 | 6.8 | 9 | 8.4 | 6.4 | 0.00833
2 | COc1cc(OC)c(-c2cn3ccc(N4CCC(CN(C)C)CC4)cc3n2)cc1Cl [Example 97, 1-(1-(2-(5-Chloro-2,4-dimethoxyphenyl)imidazo[1,2-a]pyridin-7-yl)piperidin-4-yl)-N,N-dimethylmethanamine] | 3.2 | 6.5 | 2.8 | 2.4 | 2.3 | 0.00768
3 | COC(=O)N1CCN(c2ccn3cc(-c4cc(Cl)c(OC)cc4OC)nc3c2)CC1 [Example 99, methyl 4-[2-(5-chloro-2,4-dimethoxyphenyl)imidazo[1,2-a]pyridine-7-yl]piperazine-1-carboxylate] | 1.5 | 1.6 | 1.5 | 1.8 | 1.9 | 0.00606
4 | COc1cc(OC)c(-c2cn3ccc(N4CCN(S(=O)(=O)C5CC5)CC4)cc3n2)cc1Cl [Example 103, 2-(5-chloro-2,4-dimethoxyphenyl)-7-[4-(cyclopropylsulfonyl)piperazin-1-yl]imidazo[1,2-a]pyridine] | 1.3 | 1.6 | 0.55 | 0.61 | 0.7 | 0.0103
5 | COc1cc(OC)c(-c2cn3ccc(N4CCN(CCF)CC4)cc3n2)cc1Cl [Example 104, 2-(5-chloro-2,4-dimethoxyphenyl)-7-(4-(2-fluoroethyl)piperazin-1-yl)-imidazo[1,2-a]pyridine] | 6.7 | 8.9 | 8.3 | 4.2 | 4.7 | 0.00666
6 | COC(=O)NC1CCN(c2ccn3cc(-c4cc(Cl)c(OC)cc4OC)nc3c2)CC1 [Example 122, methyl (1-(2-(5-chloro-2,4-dimethoxyphenyl)imidazo[1,2-a]pyridin-7-yl)piperidin-4-yl)carbamate] | 2.7 | 6.4 | 5.8 | 4.9 | 3.3 | 0.00814
7 | COc1cc(OC)c(-c2cn3ccc(N4CCC(NC(=O)C(C)(C)C)CC4)cc3n2)cc1Cl [Example 123, N-(1-(2-(5-chloro-2,4-dimethoxyphenyl)imidazo[1,2-a]pyridin-7-yl)piperidin-4-yl)pivalamide] | 3.3 | 3.4 | 2.6 | 2 | 2.2 | 0.00771
8 | COc1cc(OC)c(-c2cn3ccc(N4CCC(NC(C)=O)CC4)cc3n2)cc1Cl [Example 124, N-{1-[2-(5-chloro-2,4-dimethoxyphenyl)imidazo[1,2-a]pyridin-7-yl]piperidin-4-yl}acetamide] | 2.2 | 3.1 | 1.9 | 3.1 | 1.9 | 0.00327
9 | COc1cc(OC)c(-c2cn3ccc(C4CCC(N)CC4)cc3n2)cc1Cl (stereo not drawn) [Example 125, 4-(2-(5-chloro-2,4-dimethoxyphenyl)imidazo[1,2-a]pyridin-7-yl)-cyclohexanamine] | 2.3 | 2.9 | 2.7 | 2.7 | 5 | 0.0651
10 | COc1cc(OC)c(-c2cn3ccc(N4CCC(NS(=O)(=O)C5CC5)CC4)cc3n2)cc1Cl [Example 126, N-{1-[2-(5-chloro-2,4-dimethoxyphenyl)imidazo[1,2-a]pyridin-7-yl]piperidin-4-yl}cyclopropanesulfonamide] | 2.1 | 1.8 | 1.9 | 1.4 | 3.1 | 0.014
11 | COc1cc(OCCCN(C)C)c(-c2cn3ccc(N4CCN(C(=O)OC(C)(C)C)CC4)cc3n2)cc1Cl [Example 127, tert-butyl 4-(2-{5-chloro-2-[3-(dimethylamino)propoxy]-4-methoxyphenyl}imidazo[1,2-a]pyridin-7-yl)piperazine-1-carboxylate] | 1.6 | 0.83 | 1.2 | 0.5 | 1.6 | 0.0995
12 | COc1cc(OC)c(-c2cn3ccc(N4CCC(NS(C)(=O)=O)CC4)cc3n2)cc1Cl [Example 128, N-{1-[2-(5-chloro-2,4-dimethoxyphenyl)imidazo[1,2-a]pyridin-7-yl]piperidin-4-yl}methanesulfonamide] | 1.5 | 1.1 | 4.5 | 0.58 | 1.8 | 0.00883
13 | CCCCCNC1CCN(c2ccn3cc(-c4cc(Cl)c(OC)cc4OC)nc3c2)CC1 [Example 129, 1-[2-(5-chloro-2,4-dimethoxyphenyl)imidazo[1,2-a]pyridin-7-yl]-N-pentylpiperidin-4-amine] | 1.5 | 1.3 | 0.74 | 0.7 | 1.7 | 0.00841
14 | COc1cc(OC)c(-c2cn3ccc(N4CCN(CCCN(C)C)CC4)cc3n2)cc1Br [Example 130, 3-(4-(2-(5-bromo-2,4-dimethoxyphenyl)imidazo[1,2-a]pyridin-7-yl)-piperazin-1-yl)-N,N-dimethylpropan-1-amine] | 2.7 | 6.6 | 2.8 | 4.6 | 2.6 | 0.003
15 | COc1cc(OC)c(-c2cn3ccc(N4CCN(CCN5CCOCC5)CC4)cc3n2)cc1Br [Example 131, 4-(2-(4-(2-(5-bromo-2,4-dimethoxyphenyl)imidazo[1,2-a]pyridin-7-yl)-piperazin-1-yl)ethyl)morpholine] | 8.3 | 8.3 | 8.4 | 7.3 | 6.8 | 0.00349
16 | CCOC(=O)CCN1CCN(c2ccn3cc(-c4cc(Cl)c(OC)cc4OC)nc3c2)CC1 [Example 132, ethyl 3-(4-(2-(5-chloro-2,4-dimethoxyphenyl)imidazo[1,2-a]pyridin-7-yl)piperazin-1-yl)propanoate] | 11 | 22 | 9.8 | 7.6 | 9 | 0.0124
17 | COc1cc(OC)c(-c2cn3ccc(C4=CCN(CCO)CC4)cc3n2)cc1Cl [Example 134, 2-(4-(2-(5-chloro-2,4-dimethoxyphenyl)imidazo[1,2-a]pyridin-7-yl)-5,6-dihydropyridin-1(2H)-yl)ethanol] | 5 | 5.4 | 6.8 | 3.8 | 5.3 | 0.0576
18 | COc1cc(OC)c(-c2cn3ccc(N4CCN(CCN5CCCCC5)CC4)cc3n2)cc1Cl [Example 135, 2-(5-chloro-2,4-dimethoxyphenyl)-7-(4-(2-(piperidin-1-yl)ethyl)piperazin-1-yl)imidazo[1,2-a]pyridine] | 3 | 2.8 | 2.4 | 4.8 | 2.6 | 0.0128
